# Tests used:
# CD-i mice = test: TQL-1055 HP-β-CD dose ranging study: weight loss and survival; conditions: for Deaths (D 7) / Deaths (D 21): CD-1 mice, I.M.; for Deaths (D 7): post dose 1; for Deaths (D 21): post dose 2 (day 14)
# [1] = tested on: cancer patients; well (non-cancer) adult and child recipients; conditions: cited from earlier work
# [2] = tested on: mouse strains (C57BL/6J, BALB/cJ, CD-i); test: Tolerability (mortality) of soluble TQL-1055 formulations across three mouse strains; format: in vivo
# Description: The tolerability of soluble TQL-1055 formulations, including TQL-1055 FA (free acid) HP-β-CD and TQL-1055 ISKS (in situ potassium salt) HP-β-CD formulations, administered over a range of doses was examined across three mouse strains (C57BL/6J, BALB/cJ, CD-i). The following experimental groups were used. I.M. administration was performed.
# The mortality rate 7 days after injection was observed.
# A Logrank (Mantel-Cox) test was performed to assess survival distributions of the foregoing groups.
# [3] = no antigen, HPβCD dose equivalent to group 4
# [4] = with 0.1 μg PR8 HA, HPβCD dose equivalent to group 4
molecule,measurement,setting,value
2-hydroxypropyl beta-cyclodextrin [HPβCD alone],Deaths (D 7),CD-i mice; [3],0/10
same,Deaths (D 7),CD-i mice; [4],0/10
same,Deaths (D 21),CD-i mice; [3],0/10
same,Deaths (D 21),CD-i mice; [4],0/10
same,"Mortality (follow-on studies, text)","CD-i mice; mice, TQL-1055 without HP-β-CD, or HP-β-CD without TQL-1055, any dose tested",did not result in mortality
CC1O[C@@H](OC2C(O)[C@@H](NC(=O)CCCCCCCCCCC(=O)O)C(CO)O[C@H]2OC(=O)[C@]23CCC(C)(C)CC2C2=CCC4C5(C)CC[C@H](O)[C@](C)(C=O)[C@@H]5CC[C@]4(C)[C@]2(C)CC3O)C(O)C(O)[C@H]1O[C@@H]1OC[C@@H](O)C(O)C1O (stereo partly drawn) [TQL1055 FA],Deaths (D 7),"CD-i mice; no antigen, 50 μg",0/10
same,Deaths (D 7),"CD-i mice; no antigen, 100 μg",0/10
same,Deaths (D 7),"CD-i mice; no antigen, 200 μg",0/10
same,Deaths (D 7),"CD-i mice; with 0.1 μg PR8 HA, 50 μg",0/10
same,Deaths (D 7),"CD-i mice; with 0.1 μg PR8 HA, 100 μg",0/10
same,Deaths (D 7),"CD-i mice; with 0.1 μg PR8 HA, 198.68 μg",0/10
same,Deaths (D 21),"CD-i mice; no antigen, 50 μg",0/10
same,Deaths (D 21),"CD-i mice; no antigen, 100 μg",0/10
same,Deaths (D 21),"CD-i mice; no antigen, 200 μg",0/10
same,Deaths (D 21),"CD-i mice; with 0.1 μg PR8 HA, 50 μg",0/10
same,Deaths (D 21),"CD-i mice; with 0.1 μg PR8 HA, 100 μg",0/10
same,Deaths (D 21),"CD-i mice; with 0.1 μg PR8 HA, 198.68 μg",0/10
QS-21,tolerated dose,"[1]; cancer patients, above it significant local and systemic side effects arise",100 to 150 µg
same,highest practical tolerable dose,[1]; well (non-cancer) adult and child recipients,25 to 50 µg
same,Deaths (D 7),"CD-i mice; with 0.1 μg PR8 HA, 25 μg",0/10
same,Deaths (D 7),"CD-i mice; with 0.1 μg PR8 HA, 50 μg",0/10
same,Deaths (D 7),"CD-i mice; with 0.1 μg PR8 HA, 100 μg",2/10
same,Deaths (D 21),"CD-i mice; with 0.1 μg PR8 HA, 25 μg",0/10
same,Deaths (D 21),"CD-i mice; with 0.1 μg PR8 HA, 50 μg",0/10
same,Deaths (D 21),"CD-i mice; with 0.1 μg PR8 HA, 100 μg",0/8
same,Deaths,"[2]; BALB/cJ mice, 20 μg I.M., 7 days after injection",0/10
same,Deaths,"[2]; BALB/cJ mice, 40 μg I.M., 7 days after injection",0/10
same,Deaths,"[2]; BALB/cJ mice, 60 μg I.M., 7 days after injection",0/10
same,Deaths,"[2]; BALB/cJ mice, 80 μg I.M., 7 days after injection",0/10
same,Deaths,"[2]; BALB/cJ mice, 100 μg I.M., 7 days after injection",0/10
same,Deaths,"[2]; C57BL/6J mice, 20 μg I.M., 7 days after injection",0/10
same,Deaths,"[2]; C57BL/6J mice, 40 μg I.M., 7 days after injection",2/10
same,Deaths,"[2]; C57BL/6J mice, 60 μg I.M., 7 days after injection",0/10
same,Deaths,"[2]; C57BL/6J mice, 80 μg I.M., 7 days after injection",5/10
same,Deaths,"[2]; C57BL/6J mice, 100 μg I.M., 7 days after injection",10/10
same,Role of mouse strain in tolerability,"[2]; C57BL/6J, BALB/cJ, CD-1 compared",C57BL/6 mice appear to be more sensitive
same,Deaths,"[2]; CD-1 mice, 20 μg I.M., 7 days after injection",0/10
same,Deaths,"[2]; CD-1 mice, 40 μg I.M., 7 days after injection",0/10
same,Deaths,"[2]; CD-1 mice, 60 μg I.M., 7 days after injection",0/10
same,Deaths,"[2]; CD-1 mice, 80 μg I.M., 7 days after injection",0/10
same,Deaths,"[2]; CD-1 mice, 100 μg I.M., 7 days after injection",0/10
same,Mortality,"[2]; all three mouse strains, 20-100 μg I.M., 7 days after injection",at least some mice in the other groups (including QS-21) died
